US6762174B1 (priority 1998, dated 2004)
Where two headings read alike, the source gives them in different places.

How the values were obtained:
[1] = test system: MT-1 breast cancer xenograft; experiment: MT-1 breast cancer xenograft, second experiment: BT on day 3 only; assay type: in vivo, male nude mice
Procedure: In the second experiment with MT-1 breast cancer, BT was administered on day three only, at doses of […] to 3 micrograms/kg. The T/C ratio of treated vs. control median RTV was measured on day 28. […] The other doses of BT (30 ng, 3 ng, 0.3 ng, and 0.03 ng) alone were not effective in this experiment. These observations of RTV were made only through day 28.

[2] = test system: MT-1 breast cancer xenograft
[3] = test system: MOPC-315 myeloma; experiment: MOPC-315 Myeloma study #2: β-alethine ip day 10 (1 × 10^6 tumor cells); conditions: for Mean Tumor Size: 3 mg BT alone

With `NCCC(=O)NCCSSCCNC(=O)CCN` [BT, β-alethine] the effectiveness ([1]; BT 30 ng, 3 ng, 0.3 ng, 0.03 ng alone) was “not effective”, the “T/C ratio of median RTV” value ([1]; BT 300 ng/kg day 3, day 28) was 42% and the “Median RTV” value ([1]; BT 300 ng/kg on Day 3, day 8) was 1.105. The “Median RTV” value ([1]; BT 300 ng/kg on Day 3, day 14) was 1.243, the “Median RTV” value ([1]; BT 300 ng/kg on Day 3, day 21) was 2.532 and the “Median RTV” value ([1]; BT 300 ng/kg on Day 3, day 28) was 3.317. The “T/C ratio of median RTV” value ([1]; BT 3 ug/kg day 3, day 28) was 32%, the “Median RTV” value ([1]; BT 3 ug/kg on Day 3, day 8) was 1.012 and the “Median RTV” value ([1]; BT 3 ug/kg on Day 3, day 14) was 0.955. The “Median RTV” value ([1]; BT 3 ug/kg on Day 3, day 21) was 1.756, the “Median RTV” value ([1]; BT 3 ug/kg on Day 3, day 28) was 2.526 and the “T/C RTV d 49” value ([2]; BT 30 mg/kg) was 72%. For the same molecule, the “T/C RTV d 59” value ([2]; BT 30 mg/kg) was 165%, the effectiveness ([2]; BT 30 mg/kg alone) was “not effective” and the “WBC d 46” value ([2]; mouse, in vivo) was 14.4 10^6/mL. The “Mean Tumor Size” value ([3]; day 10) was 21.5 mm, the “Mean Tumor Size” value ([3]; day 14) was 24 mm and the “Mean Tumor Size” value ([3]; day 17) was 24 mm. For the same molecule, the “Mean Tumor Size” value ([3]; day 21) was “(dead)”, the “Animals Surviving” value ([3]; BT 3 ng/kg, day 10) was 10 and the “Animals Surviving” value ([3]; BT 3 ng/kg, day 11) was 10. For the same molecule, the “Animals Surviving” value ([3]; BT 3 ng/kg, day 12) was 10, the “Animals Surviving” value ([3]; BT 3 ng/kg, day 13) was 10 and the “Animals Surviving” value ([3]; BT 3 ng/kg, day 14) was 7. The “Animals Surviving” value ([3]; BT 3 ng/kg, day 15) was 5, the “Animals Surviving” value ([3]; BT 3 ng/kg, day 16) was 5 and the “Animals Surviving” value ([3]; BT 3 ng/kg, day 17) was 4. For the same molecule, the “Animals Surviving” value ([3]; BT 3 ng/kg, day 18) was 1, the “Animals Surviving” value ([3]; BT 3 ng/kg, day 19) was 1 and the “Animals Surviving” value ([3]; BT 3 ng/kg, day 20) was 1. For the same molecule, the “Animals Surviving” value ([3]; BT 3 ng/kg, day 21) was 0, the “Animals Surviving” value ([3]; BT 100 μg/kg, day 10) was 10 and the “Animals Surviving” value ([3]; BT 100 μg/kg, day 11) was 9. The “Animals Surviving” value ([3]; BT 100 μg/kg, day 12) was 6, the “Animals Surviving” value ([3]; BT 100 μg/kg, day 13) was 5 and the “Animals Surviving” value ([3]; BT 100 μg/kg, day 14) was 5. The “Animals Surviving” value ([3]; BT 100 μg/kg, day 15) was 5, the “Animals Surviving” value ([3]; BT 100 μg/kg, day 16) was 4 and the “Animals Surviving” value ([3]; BT 100 μg/kg, day 17) was 4. For the same molecule, the “Animals Surviving” value ([3]; BT 100 μg/kg, day 18) was 1, the “Animals Surviving” value ([3]; BT 100 μg/kg, day 19) was 1 and the “Animals Surviving” value ([3]; BT 100 μg/kg, day 20) was 0. The “Animals Surviving” value ([3]; BT 3 mg/kg, day 10) was 10, the “Animals Surviving” value ([3]; BT 3 mg/kg, day 11) was 9 and the “Animals Surviving” value ([3]; BT 3 mg/kg, day 12) was 6. The “Animals Surviving” value ([3]; BT 3 mg/kg, day 13) was 5, the “Animals Surviving” value ([3]; BT 3 mg/kg, day 14) was 5 and the “Animals Surviving” value ([3]; BT 3 mg/kg, day 15) was 5. For the same molecule, the “Animals Surviving” value ([3]; BT 3 mg/kg, day 16) was 4, the “Animals Surviving” value ([3]; BT 3 mg/kg, day 17) was 4 and the “Animals Surviving” value ([3]; BT 3 mg/kg, day 18) was 1. The “Animals Surviving” value ([3]; BT 3 mg/kg, day 19) was 1, the “Animals Surviving” value ([3]; BT 3 mg/kg, day 20) was 0 and the “Animals Surviving” value ([3]; BT 30 fg/kg, day 10) was 10. The “Animals Surviving” value ([3]; BT 30 fg/kg, day 11) was 10, the “Animals Surviving” value ([3]; BT 30 fg/kg, day 12) was 9 and the “Animals Surviving” value ([3]; BT 30 fg/kg, day 13) was 7. The “Animals Surviving” value ([3]; BT 30 fg/kg, day 14) was 5, the “Animals Surviving” value ([3]; BT 30 fg/kg, day 15) was 5 and the “Animals Surviving” value ([3]; BT 30 fg/kg, day 16) was 1. For the same molecule, the “Animals Surviving” value ([3]; BT 30 fg/kg, day 17) was 1 and the “Animals Surviving” value ([3]; BT 30 fg/kg, day 18) was 0.
